The values below come from patent US20070292384A1, “Water soluble micelle-forming and biodegradable cyclotriphosphazene-taxol conjugate anticancer agent and preparation method thereof” (priority 2006, published 2007).

Usually IC50 stands for the concentration that gives 50% inhibition. Lower therefore signals greater potency in that assay. In general, AUC(0-t) refers to exposure summed from dosing to a finite time, without extrapolation to infinity.

The test system of one data set is A-431. The data set can be described thus: In vitro cytotoxicity, A-431. Format: cell-based. Conditions: average ± SD, n = 3-4. How it is done: (§1) In order to evaluate the anticancer activity of the cyclotriphosphazene-taxol conjugates of the present invention, in vitro cytotoxicity of the representative compound of Example 1 was assayed both in saline and in pure water according to a standard testing procedure (Y. J. Jun, et al., J. Inorg. Biochem. (2005) 99:1593-1601), and the test results are shown in Table 1 below.

Data set [1] concerns SK-OV3 ovarian cancer cell line. Description: In vitro cytotoxicity, SK-OV3. Format: cell-based. The settings on record: average ± SD, n = 3-4. The protocol:
as §1

The test system of data set [2] is MDA-MB-231 breast cancer cell line. The data set can be described thus: In vitro cytotoxicity, MDA-MB-231. Format: cell-based. Conditions: average ± SD, n = 3-4. How it is done:
as §1

Data set [3] deals with MCF-7 breast cancer cell line. Description: In vitro cytotoxicity, MCF-7. Conditions: average ± SD, n = 3-4. It is filed as cell-based. How it is done:
as §1

Data set [4] is described as follows: Blood metabolism study in rats (HPLC of blood samples). Format: in vivo, male Sprague-Dawley rats. Conditions: rat. How it is done: To a group consisting of 4 male Sprague-Dawley rats (270-300 g) was administered the compound of Example 2 dissolved in a PBS solution at a concentration of 6.67 mg/ml by intravenous infusion with a dosage of 5 mg/kg for 3 minutes. After the drug administration, blood (100 μl) samples were taken from each rat for 48 hours at 0, 0.08, 0.5, 1, 2, 3, 4, 6, 8, 12, 24, 36 and 48 hours post injection, and the samples were analyzed with HPLC, and the results are presented in Table 2 below.

Data set [5] can be described thus: DLS measurement of micelle formation and micelle size. It is filed as physicochemical. The settings on record: 0.1 to 0.5% in distilled water, Malvern Zetasizer (Nano-ZS). How it is done: It was determined by a DLS (dynamic light scattering) method whether the cyclotriphosphazene-taxol conjugates prepared according to the present invention are aggregated in aqueous solution through interaction of the hydrophobic oligopeptide groups, so as to form micelles, according to the following procedure: A size distribution of an aqueous solution, in which 0.1 to 0.5% of the cyclotriphosphazene-taxol conjugate prepared in Example 1 was dissolved in distilled water, was measured by a DLS method using Malvern Zetasizer (Nano-ZS).

The mark [6] stands for this setting: intravenous infusion 5 mg/kg for 3 minutes, average.

Read-outs that look alike come from different tables or passages of the source.

Regarding `CC(=O)O[C@H]1C(=O)[C@@]2(C)[C@H]([C@H](OC(=O)c3ccccc3)[C@]3(O)C[C@H](OC(=O)[C@H](O)[C@@H](NC(=O)c4ccccc4)c4ccccc4)C(C)=C1C3(C)C)[C@]1(OC(C)=O)CO[C@@H]1C[C@@H]2O` [Taxol (free), Taxol], 25.1 ± 8.9 nM corresponded to half-maximal inhibition in the data set with A-431 (Homo sapiens, A-431, free taxol) (IC50). This molecule registered an IC50 in data set [1] (Homo sapiens, SK-OV-3, free taxol) of 65.8 ± 0.5 nM. Also, in data set [2] (Homo sapiens, MDA-MB-231, free taxol), inhibition was half-maximal at 47.1 ± 12.2 nM (IC50). In data set [3] (Homo sapiens, MCF7, free taxol), the midpoint of inhibition, the IC50, lay at 39 ± 4.9 nM. The AUC(0-t) in data set [4] (male, Sprague-Dawley, blood, intravenous infusion 5 mg/kg for 3 minutes, average, sampling to 48 hours) was 1970 ng·h/mL. In addition, in data set [4] (male, Sprague-Dawley, blood, intravenous infusion 5 mg/kg for 3 minutes, average, read-out: AUCINF (measurement)), the AUC(0-inf) stood at 2290 ng·h/mL. Besides, the C0 in data set [4] (male, Sprague-Dawley, blood, intravenous infusion 5 mg/kg for 3 minutes, average, read-out: C0) was 2700 ng/mL. In data set [4] (setting [6]), the AUClast/AUCINF was 85.9%, the Cl_obs was 556.2 mL/h, the Lambda z amounted to 0.275 h⁻¹ and the Vz_obs came to 2778.1 mL. The molecule further gave a t½_Lambda z in data set [4] (setting [6]) of 3.54 h.
As to “[tris(methoxy-polyethyleneglycol350)][tris(glycyllysinemethylester)-mono-2′-succinyltaxol]cyclotriphosphazene [Example 1]”, the IC50 in the data set with A-431 (in pure water) worked out at 380 ± 89.2 nM; with A-431 (in saline solution), 53.8 ± 13.9 nM; in data set [1] (in pure water) it was 503 ± 114 nM; in data set [1] (in saline solution), 138 ± 14.3 nM; in data set [2] (in pure water), 327 ± 54.5 nM; in data set [2] (in saline solution), 108 ± 10.9 nM. Further, the IC50 in data set [3] (in pure water) was found to be 447 ± 138 nM; in data set [3] (in saline solution) it was 129 ± 37.5 nM. Also, in data set [5], the “micelle radius (DLS)” value stood at 105 nm.
For “[tris(methoxy-polyethyleneglycol550)][tris(glycyllysinemethylester)-mono-2′-succinyltaxol]cyclotriphosphazene [Example 2]”, in data set [4] (setting [6]), the “AUCINF (measurement)” value came out at 2.55, the AUClast/AUCINF is given as 77.1%, the C0 is 1530 ng/mL and the Cl_obs came out at 513.3 mL/h. In data set [4] (setting [6]), the Lambda z was determined as 0.133 h⁻¹, the Vz_obs came out at 4468.9 mL and the t½_Lambda z turned out to be 6.29 h. In data set [4] (intravenous infusion 5 mg/kg for 3 minutes, average, sampling to 48 hours), this molecule gave an AUClast of 1970 ng·h/mL. For the same molecule, in data set [4] (intravenous, compared with free taxol not formulated), the “in vivo half life relative to free taxol” value is “twice longer”.
